# Patent US20250120928A1 (University of Maryland, Baltimore, priority 2021, published 2025)
# “Also recorded” adds a separate entry of the source.
# How the values were obtained:
# [1] = test system: BMMØs; format: cell-based; settings: 0-30 μM
# Method: (§1) Three hours later, cells were stimulated with 100 ng/mL LPS. After 48 hours, cells were lifted using Versene and washed with cold PBS supplemented with 1% FBS and 0.4% 0.5 M EDTA (Quality Biological, Gaithersburg, MD). FcR blocking was performed with purified anti-mouse CD16/32 antibody (#101301) (Biolegend, San Diego, CA) prior to staining with Annexin V-FITC and propidium iodide kit (#640914) (BioLegend, San Diego, CA) for apoptosis and cell death. Cell staining was conducted according to BioLegend protocols for flow cytometry. Flow cytometry data were collected using a Becton Dickinson LSR II or Becton Dickinson Canto II flow cytometer. Flow plots and data processing was done using FCS Express 7 Flow Cytometry De Novo Software (De Novo, Glendale, CA).
# as §1, with “After” for “Three hours later, cells were stimulated with 100 ng/mL LPS. After”
# [2] = test system: BMMØs; experiment: Western blot analysis of acetyl-histone H3 and acetyl-α-tubulin; settings: 10 μM, unstimulated BMMØs, 4 and 9 hours
# Method: Day 8 BMMØs were seeded at 1×10^6 cells/well in sterile 6-well plates incubated at 37° C. and 5% CO2 overnight to allow for cell adherence. […] Cells were lysed with Halt™ Protease Inhibitor Cocktail (Cat #78429) (Thermo Fisher, Waltham MA) in RIPA Buffer (Cat #R0278) (Sigma-Aldrich, St. Louis, MO) and scraped with a cell scraper (VWR, Radnor, PA). Lysates were sonicated with a ⅛^th needle tip using a Cole-Parmer 500-Watt Ultrasonic Homogenizer at 40% amplitude for 10 seconds on ice. Lysates were then centrifuged at 4° C. for 20 minutes at 12,000×g. The supernatant was collected and frozen at −80° C. until ready for western blot analysis. Protein lysates were produced using 50/50 sample to 2×SDS/PAGE sample buffer. Proteins were then separated by SDS/PAGE and immunoblotted using Histone H3 (D1H2) XP, Acetyl-Histone H3 (lys9/Lys14), α-Tubulin (11H10), Acetyl-α-Tubulin (Lys40) (D20G3) XP and β-Actin as primary antibodies. ECL was used for detection.
# Day 8 BMMØs were seeded at 1×10^6 cells/well in sterile 6-well plates incubated at 37° C. and 5% CO2 overnight to allow for cell adherence. […] Cells were lysed with Halt™ Protease Inhibitor Cocktail (Cat #78429) (Thermo Fisher, Waltham MA) in RIPA Buffer (Cat #R0278) (Sigma-Aldrich, St. Louis, MO) and scraped with a cell scraper (VWR, Radnor, PA). Lysates were sonicated with a ⅛th needle tip using a Cole-Parmer 500-Watt Ultrasonic Homogenizer at 40% amplitude for 10 seconds on ice. Lysates were then centrifuged at 4° C. for 20 minutes at 12,000×g. The supernatant was collected and frozen at −80° C. until ready for western blot analysis. Protein lysates were produced using 50/50 sample to 2×SDS/PAGE sample buffer. Proteins were then separated by SDS/PAGE and immunoblotted using Histone H3 (D1H2) XP, Acetyl-Histone H3 (Lys9/Lys14), α-Tubulin (11H10), Acetyl-α-Tubulin (Lys40) (D20G3) XP and β-Actin as primary antibodies. ECL was used for detection.
# [3] = test system: unstimulated BMMØs; experiment: MTS assay; format: cell-based, C57BL/6J mice; settings: Mus musculus; unstimulated BMMØs treated for 48 hours; read-out: IC50 (MTS assay, cellular proliferation)
# Method: Cells were then washed with PBS and 50 μL of MTS solution was added to each well and incubated for 1 hour. The optical density (O.D.) of the solution was measured using a SpectraMax iD3 microplate reader at 570 nm. The percentage of cell proliferation was measured as the ratio of O.D. at 570 nm to no treatment control. IC50 values were calculated using GraphPad Prism 9 program based on a sigmoidal dose-response equation.
# [4] = test system: T cells (CD3+) from splenocytes; experiment: Splenocyte apoptosis and cell death by AV/PI flow cytometry, T cells; format: cell-based; settings: concentrations up to 30 μM
# [5] = test system: LPS-induced endotoxemia mouse model; experiment: Plasma cytokine analysis in the LPS-induced endotoxemia mouse model; format: in vivo, male C57BL/6J mice; settings: 50 mg/kg i.p. 3 hours before 20 mg/kg LPS i.p.; blood 3 hours post-LPS
# Method: Terminal cardiac blood draws from the left ventricle occurred 3 hours post LPS injections using a 25 g needle and 1 mL syringe into an EDTA coated lavender blood collection tube (BD Medical, Franklin Lakes, NJ). Blood samples were centrifuged at 1000×g for 10 minutes within 30 minutes of collection. Plasma was extracted and diluted 10,000-fold for ELISA IL-6 measurement and diluted 10-fold for TNFα measurements.
# Terminal cardiac blood draws from the left ventricle occurred 3 hours post LPS injections using a 25 g needle and 1 mL syringe into an EDTA coated lavender blood collection tubes (BD Medical, Franklin Lakes, NJ). Blood samples were centrifuged at 1000×g for 10 minutes within 30 minutes of collection. Plasma was extracted and diluted 10,000-fold for ELISA IL-6 measurement and diluted 10-fold for TNFα measurements. MAGPIX Luminex bead-based multiplex ELISA (Thermo Fisher Scientific, Waltham, MA) of mouse plasma (diluted 100-fold) measured for 26 various cytokines and chemokines and data was analyzed using the Luminex xPONENT software (Millipore) as per manufacturer's instructions. The 26-plex panel include murine IL-1β, IL-2, IL-4, IL-5, IL-6, IL-9, IL-10, IL-12p70, IL-13, IL-17A (CTLA-8), IL-18, IL-22, IL-23, IL-27, GM-CSF, IFNγ, TNFα, MCP-1 (CCL2), MIP-1α (CCL3), MIP-10 (CCL4), RANTES (CCL5), MCP-3 (CCL7), Eotaxin (CCL11), GROα (CXCL1), MIP-2a (CXCL2), and IP-10 (CXCL10).
# [6] = test system: LPS-stimulated bone marrow macrophages (BMMØ); experiment: BMMØ cytokine secretion following LPS stimulation (ELISA, Luminex); format: cell-based, C57BL/6J mice
# Method: (§2) Three hours later, cells were stimulated with 100 ng/mL LPS. After 48 hours, cell culture supernatants were collected and analyzed by enzyme-linked immunosorbent assays (ELISA) (BioLegend, San Diego, CA) to measure murine IL-6 and TNFα. MAGPIX Luminex bead-based multiplex ELISA (Thermo Fisher Scientific, Waltham, MA) measured for 7 various cytokines and chemokines, and data were analyzed using the Luminex xPONENT software (Millipore) as per manufacturer's instructions. The 7-plex panel included murine IFNβ, IL-10, IL-6, IL-1β, MCP-1 (CCL2), TNFα, and GROα (CXCL1).
# as §2, with “After” for “Three hours later, cells were stimulated with 100 ng/mL LPS. After”, “(Milli-pore)” for “(Millipore)”, “TL-6,” for “IL-6,”
# [7] = test system: T1, HDAC1, 2, 3; experiment: Fluorescence-based HDAC activity assay with fluorogenic peptide substrate (Reaction Biology); format: biochemical
# T1 construct: other: range over the three isoforms; other: 237-359 nM compared to 30000 nM
# Method: Fluorescence-based activity assays using fluorogenic peptides as substrates for HDAC1, 2, 3, 6, and 8 were performed by Reaction Biology Corporation (reactionbiology.com). […] The substrate for HDACs 1, 2, 3, and 6 was a fluorogenic peptide from p53 residues 379-382 (RHKK(Ac)AMC) (SEQ ID NO: 1). The substrate for HDAC8 was a fluorogenic peptide from p53 residues 379-382 (RHK(Ac)K(Ac)AMC) (SEQ ID NO: 2). SAHA-OH IC50 values were calculated using GraphPad Prism 4 program based on a sigmoidal dose-response equation. The blank (DMSO) value was entered as 1.00×10^−12 of concentration for curve fitting.
# [8] = 0-30 μM for 3 hours, then LPS 100 ng/mL 48 hours, ELISA
# [9] = 10 μM, 3 hours before 48-hour LPS
# [10] = 10 μM, 3 hours before 48-hour LPS, Luminex, relative to LPS control
structure (smiles),measurement,setting,value
"O=C(CCCCCCC(=O)Nc1ccc(CO)cc1)NO [SAHA-OH, N^1-hydroxy-N^8-(4-(hydroxymethyl)phenyl)octanediamide]",apoptosis (AV+/PI−) over concentration,[1],apoptosis induction
same,viability (AV−/PI−) over concentration,[1],concentration-dependent viability reduction
same,acetylation of histone H3,[2],slight decrease in histone H3 acetylation compared to SAHA; also recorded: reduced Ac—H3 activity compared to SAHA
same,acetylation of α-tubulin,[2],similarly resulted in the acetylation; also recorded: similar
same,IC50,[3],1300 nM
same,toxicity for the T cell population,[4],minimal toxicity
same,reduction of plasma IL-6,[5],about 50%
same,reduction of plasma TNFα,[5],about 50%
same,IL-6 cytokine secretion,[6]; [8],concentration-dependent reduction
same,TNFα cytokine secretion,[6]; [8],concentration-dependent reduction
same,IL-6 secretion,[6]; [9],less effective than SAHA; also recorded: only moderately suppressed
same,MCP-1 cytokine secretions,[6]; [9],non-significantly affected
same,IFNβ cytokine levels,[6]; [10],similarly suppressed cytokine levels compared to SAHA
same,IL-1β cytokine levels,[6]; [10],did not affect IL-1β (FIG. 8B) cytokine levels as effectively as 10 μM SAHA
same,TNFα cytokine levels,[6]; [10],similarly suppressed cytokine levels compared to SAHA
same,GROα (CXCL1) secretion,"[6]; 10 μM, Luminex, compared to LPS or SAHA-treated BMMØs",significant upregulation
same,"more selective for HDAC1, 2, 3 compared to Tubastatin A",[7]; 237-359 nM compared to 30000 nM,approximately 100 fold
same,IC50,"[7]; range over the three isoforms, read-out: IC50 against HDAC1, 2, 3",237 to 359 nM
